Drawing on ChEMBL document CHEMBL1155003, “Halicyclamine A, a marine spongean alkaloid as a lead for anti-tuberculosis agent” (2008), this text covers MIC, Activity and CFU/ml for 2 compounds.

Values after ≈ are worked out from the molar mass of the structure shown. Active and inactive are the calls of the source.

In assay [1] the test system is Mycobacterium tuberculosis. Description: Antitubercular activity against Mycobacterium tuberculosis H37Ra under hypoxic condition after 14 days by MTT method. It counts as functional. The conditions noted are these: 336 h.
Assay [2] relates to Mycobacterium tuberculosis. Description: Antitubercular activity against Mycobacterium tuberculosis H37Ra under aerobic condition after 7 days by MTT method. It counts as functional. The conditions noted are these: 168 h. Background: Tetrazolium dyes change colour on reduction, which living cells bring about.
For assay [3], the system named is Mycolicibacterium smegmatis. Description: Antitubercular activity against Mycobacterium smegmatis MC2 155 under aerobic condition after 24 hrs by MTT method. It counts as functional. The settings on record: str. MC2 155, 24 h.
Assay [4] has as its system Mycolicibacterium smegmatis. Put plainly: Antitubercular activity against Mycobacterium smegmatis MC2 155 under hypoxic condition after 96 hrs by MTT method. It counts as functional. The conditions noted are these: str. MC2 155, 96 h.
The test system of assay [5] is Mycobacterium tuberculosis. Put plainly: Antitubercular activity against Mycobacterium tuberculosis H37Rv ATCC 25618 after 14 days. The settings on record: 336 h. The class given is functional.
Assay [6] relates to Mycobacterium intracellulare. Description: Antitubercular activity against Mycobacterium intracellular ATCC 35761 after 14 days. The class given is functional. The conditions noted are these: ATCC 35761, 336 h.
Assay [7] concerns Mycobacterium tuberculosis. Description: Antitubercular activity against Mycobacterium tuberculosis Kurono ATCC 35812 after 14 days. The class given is functional. The settings on record: 336 h.
Assay [8] relates to Mycolicibacterium smegmatis. Description: Antitubercular activity against Mycobacterium smegmatis MC2 155 ICHO1001 with pMV261 transformant. It counts as functional. The conditions noted are these: str. MC2 155.
A further assay deals with Mycobacterium kansasii. Description: Antitubercular activity against Mycobacterium kansasii ATCC 35775 after 14 days. The class given is functional. The conditions noted are these: ATCC 35775, 336 h.
Assay [9] relates to Mycolicibacterium fortuitum. Description: Antitubercular activity against Mycobacterium fortuitum ATCC 9820 after 14 days. It counts as functional. The settings on record: ATCC 9820, 336 h.
Assay [10] deals with Mycolicibacterium smegmatis. Description: Antitubercular activity against guaB1 gene over-expressed Mycobacterium smegmatis MC2 155 ICHO1002. It counts as functional. The conditions noted are these: str. MC2 155.
For assay [11], the system named is Mycolicibacterium smegmatis. Description: Antitubercular activity against guaB2 gene over-expressed Mycobacterium smegmatis MC2 155 ICHO1003. It counts as functional. The conditions noted are these: str. MC2 155.
The test system of a further assay is Mycobacterium avium. Description: Antitubercular activity against Mycobacterium avium ATCC 35712 after 14 days. It counts as functional. The conditions noted are these: ATCC 35712, 336 h.
Assay [12] concerns Mycolicibacterium smegmatis. Description: Bactericidal activity against Mycobacterium smegmatis MC2 155 assessed as decrease in CFU at 10 ug/ml after 4 days. The class given is functional, organism-based. The conditions noted are these: str. MC2 155.
For assay [13], the system named is Mycobacterium tuberculosis. Description: Bactericidal activity against Mycobacterium tuberculosis H37Rv assessed as decrease in CFU at 20 ug/ml after 11 to 28 days. It counts as functional.
The test system of the next assay is Mycolicibacterium aurum. Put plainly: Antitubercular activity against Mycobacterium aurum ATCC 23366 after 14 days. It counts as functional. The conditions noted are these: ATCC 23366, 336 h.
In assay [14] the test system is Mycolicibacterium smegmatis. Put plainly: Antitubercular activity against guaB3 gene over-expressed Mycobacterium smegmatis MC2 155 ICHO1004. It counts as functional. The settings on record: str. MC2 155.

As a reminder, the MIC is the smallest concentration in the dilution series that meets the test's criterion for growth inhibition. The low end stands for a more susceptible organism, the high end for a less susceptible organism. For `NNC(=O)c1ccncc1` [ISONIAZID], the minimal inhibitory concentration (MIC) is above 100 µg/mL in [1], 0.05 µg/mL (≈ 0.365 µM) in assay [2], 2.5 µg/mL (≈ 18.2 µM) in [3] and 25 µg/mL (≈ 182 µM) in assay [4].

Turning to `C1=C2CCCC/C=C\C=C\CCN3CC[C@@H]4[C@H](CCCCCC/C=C\C=C/CCN(C2)C[C@H]14)C3` [HALICYCLAMINE A], the MIC in [5] was 6.25 µg/mL (≈ 13.5 µM); in [6], 6.25 µg/mL (≈ 13.5 µM); in assay [7], 3.13 µg/mL (≈ 6.76 µM); in assay [8], 2.5 µg/mL (≈ 5.4 µM); in the assay with Mycobacterium kansasii it was 3.13 µg/mL (≈ 6.76 µM); in assay [9], 25 µg/mL (≈ 54 µM). Moreover, the MIC in assay [1] stood at 5 µg/mL (≈ 10.8 µM); in assay [2], 5 µg/mL (≈ 10.8 µM); in assay [10], 2.5 µg/mL (≈ 5.4 µM); in assay [11] it was 2.5 µg/mL (≈ 5.4 µM); in the assay with Mycobacterium avium, 6.25 µg/mL (≈ 13.5 µM); against Mycolicibacterium aurum, 6.25 µg/mL (≈ 13.5 µM). In addition, the minimal inhibitory concentration (MIC) in [3], in [4] and in assay [14] was 2.5 µg/mL (≈ 5.4 µM) throughout. For the same compound, the outcome in assay [12] was Active. For the same compound, the CFU/ml in assay [13] is listed as below 10.
